Tests used:
[1] = tested on: acute myeloid leukemia (AML); assay: Retrospective analysis of atovaquone exposure in AML patients after HSCT; type: in vivo, human
Protocol: Atovaquone start and end dates for approximately 500 AML patients who underwent HSCT at Dana-Farber Cancer Institute from 2006-2012 were obtained by chart review of the electronic medical record with DFCI IRB approval. Atovaquone was administered as a suspension, 750 mg twice daily. Due to the intermittent atovaquone dosing for some patients, a discontinuation for longer than 50 days disqualified subsequent atovaquone treatment from counting toward a patient's total atovaquone exposure. Patients who received more than one HSCT were excluded (4% of total patients).
The patient population consisted of AML patients treated with HSCT at the Dana-Farber Cancer Institute and who survived at least 150 days after transplant without relapse. Patients treated with atovaquone for at least 100 days within the 150-day period were classified as “high atovaquone” exposure, while the remaining patients were classified as “low atovaquone” exposure. […] To further investigate the anti-cancer activity of atovaquone in patients, serum samples were collected from patients approximately 100 days following HSCT who were being treated with either TMP-SMX or atovaquone. […] Atovaquone is a colored compound, and its presence in patient plasma is visibly noticeable.

HEL cells [2] = assay: PI cell cycle analysis, HEL; type: cell-based; details: 25 μM, 24 hours
Protocol: Annexin V/PI staining was performed using Annexin V:FITC Apoptosis Detection Kit I (BD Biosciences). Staining for cell cycle analysis was performed as previously described (267). Staining for cell-surface receptors was performed in 50 μl PBS+2% FBS with 2 μl antibody to IL6R (BioLegend #352803) or 5 μl antibody to gp130 (BD Biosciences #555757) for 20 minutes on ice in the dark. Cells were washed twice, then resuspended in 300 μl of the same buffer. Samples were analyzed on a BD FACSCanto II machine. Transfection and siRNA Cells were reverse-transfected using Lipofectamine RNAiMAX (Invitrogen); the culture medium was changed 24 hours later. Control siRNA (D-001210-02) and REDD1 siRNA (M-010855-01) were from Thermo Scientific Dharmacon. Additionally, it was hypothesized atovaquone inhibits proliferation by disrupting cell cycle progression. […] In summary, atovaquone inhibits constitutive STAT3 activation and target gene expression in cancer cells, and reduces their survival and proliferation.

HEL cells [3] = assay: Cell viability (Cell Titer Glo), HEL; type: cell-based; details: 72 hours
Protocol: Western blotting was performed as previously described (Battle T E, Arbiser J, & Frank D A (2005) The natural product honokiol induces caspase dependent apoptosis in B-cell chronic lymphocytic leukemia (B-CLL) cells. Blood 106(2):690-697). Antibodies to phospho-MAPK (9101), total MAPK (9102), phospho-Y705 STAT3 (9131), phospho-S6 (2215), total S6 (2217), phospho-4E-BP1 (9451), total 4E-BP1 (9644), total RSK (9355), phospho-S6K (9234, 85 used at 1:5000), total S6K (2708), phospho-eIF2α (9721, used at 1:1000), total eIF2α (5324), ATF4 (11815, used at 1:1000), PDGFRβ (3169), IGF1Rβ (9750), EGFR (2232), and HER2 (2242) were from Cell Signaling Technology. Phospho-RSK antibody was from R&D (AF889). Antibodies to total STAT3 (sc-482) and gp130 (sc-656, used at 1:1000) were from Santa Cruz Biotechnology. Phospho-S727 STAT3 antibody was described previously (229). REDD1 antibody was from Proteintech (10638-1-AP, used at 1:1000). Antibody recognizing full-length and cleaved ATF6 was from Abcam (ab122897, used at 1:1000). Antibodies to tubulin (T5168) and beta actin (A5316) were from Sigma. All antibodies were used at 1:10000 dilution for western blot unless otherwise noted. […] Cell viability was measured as ATP-dependent luminescence by Cell Titer Glo (Promega). […]

STAT1 = STAT1 phosphorylation in cancer cells; type: cell-based
From the text: It has been discovered, using an unbiased gene expression-based approach, that atovaquone is a novel STAT3 inhibitor. Atovaquone acts by diminishing cell-surface gp130 expression and STAT3 tyrosine phosphorylation. As a consequence, critical STAT3 target genes mediating survival and proliferation are reduced, such as survivin, Bcl-2 family members, and cyclin D1. Moreover, atovaquone inhibits the viability of STAT3-dependent cancer cells by inducing apoptosis and disrupting cell cycle progression. […] Since STAT5 activation is crucial to cancer pathogenesis caused by JAK2-V617F, the additional inhibition of STAT5 in this context is a desirable effect of atovaquone. […] Because the effects of atovaquone on STAT activation are restricted to gp130-dependent signaling, atovaquone inhibits STATs more selectively than direct pharmacological JAK inhibition. […] At the same time, the actions of atovaquone extend to all cytokines that signal through gp130, including LIF and OSM, thereby exerting broader effects than therapies specifically directed against IL-6 or IL-6 receptor, such as monoclonal antibodies. This is also advantageous, since oncogenic effects of LIF and OSM have been reported.

For `O=C1C(O)=C([C@H]2CC[C@H](c3ccc(Cl)cc3)CC2)C(=O)c2ccccc21` [atovaquone, trans-2-[4-(4-chlorophenyl)cyclohexyl]-3-hydroxy-1,4-naphthalenedione], the relapse-free survival ([1]; "high atovaquone" (at least 100 days within the 150-day period) vs "low atovaquone") was “significantly improved relapse-free survival”, the overall survival ([1]; "high atovaquone" vs "low atovaquone") was “trend toward improved overall survival” and the “population of cells in G2/M” value (HEL cells [2]) was “decreased the population of cells in G2/M”. For the same compound, the “proportion of cells with lower DNA content” value (HEL cells [2]) was “increased the proportion of cells with lower DNA content”, the “viability of HEL cells” value (HEL cells [3]) was “killed” and the “mutant JAK2-dependent phosphorylation of STAT1” value (STAT1; HEL cells) was “inhibited”. The “IL-6-dependent phosphorylation of STAT1” value (STAT1; INA-6 and U266 cells) was “inhibited IL-6-dependent phosphorylation of STAT1”.
